Data published in PubChem BioAssay (NCI).
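A five-concentration, 48-hour dose response in 96-well plates underlies each endpoint, interpolated linearly between surrounding concentrations. Here, GI50 denotes the concentration required for 50% inhibition of growth. At the TGI there is no net growth.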 *1 amine or outer side, *2 acyl side, *3 side chain or, on linkers, in order; H or OH if unused. Where a SMILES comes first, the peptide text is derived from it. Bridges are numbered along the chain shown (N, C = ends). [ ]: non-standard residue; d: D form. The star is where a group is joined. Phe(3-Me) = Cc1cccc(C[C@H](N)C(=O)O)c1; NH(4-Cl-2-F-phenyl) = Fc1cc(Cl)ccc1N*; Pro(4R-Me) = C[C@H]1CN[C@H](C(=O)O)C1; Hyp = O=C(O)[C@@H]1C[C@@H](O)CN1; aThr = C[C@H](O)[C@H](N)C(=O)O; Pip = O=C(O)[C@@H]1CCCCN1; CO = O=C([*:1])[*:2]

What was measured:
Test in all cases: NCI-60 cell line screen, 48 h
[1] = system: 786-0 renal
[2] = system: A498 renal
[3] = system: A549 NSCLC
[4] = system: ACHN renal
[5] = system: BT-549 breast
[6] = system: CAKI-1 renal
[7] = system: CCRF-CEM leukemia
[8] = system: COLO 205 colon
[9] = system: DU-145 prostate
[10] = system: EKVX NSCLC
[11] = system: HCC-2998 colon
[12] = system: HCT-116 colon
[13] = system: HCT-15 colon
[14] = system: HL-60(TB) leukemia
[15] = system: HOP-62 NSCLC
[16] = system: HOP-92 NSCLC
[17] = system: HS 578T breast
[18] = system: HT29 colon
[19] = system: IGROV1 ovarian
[20] = system: K-562 leukemia
[21] = system: KM12 colon
[22] = system: LOX IMVI melanoma
[23] = system: M14 melanoma
[24] = system: MALME-3M melanoma
[25] = system: MCF7 breast
[26] = system: MDA-MB-231 breast
[27] = system: MDA-MB-435
[28] = system: MOLT-4 leukemia
[29] = system: NCI-H226 lung
[30] = system: NCI-H23 lung
[31] = system: NCI-H460 lung
[32] = system: NCI-H522 lung
[33] = system: NCI/ADR-RES ovarian
[34] = system: OVCAR-3 ovarian
[35] = system: OVCAR-4 ovarian
[36] = system: OVCAR-5 ovarian
[37] = system: OVCAR-8 ovarian
[38] = system: PC-3 prostate
[39] = system: RPMI-8226 leukemia
[40] = system: RXF 393 renal
[41] = system: SF-268 CNS
[42] = system: SF-295 CNS
[43] = system: SF-539 CNS
[44] = system: SK-MEL-2 melanoma
[45] = system: SK-MEL-28 melanoma
[46] = system: SK-MEL-5 melanoma
[47] = system: SK-OV-3 ovarian
[48] = system: SN12C renal
[49] = system: SNB-19 CNS
[50] = system: SNB-75 CNS
[51] = system: SR leukemia
[52] = system: SW-620 colon
[53] = system: T-47D breast
[54] = system: TK-10 renal
[55] = system: U251 CNS
[56] = system: UACC-257 melanoma
[57] = system: UACC-62 melanoma
[58] = system: UO-31 renal

## Cc1cccc(C[C@H](NC(=O)Nc2ccc(Cl)cc2F)C(=O)N[C@@H]2C(=O)N3C[C@H](O)C[C@H]3C(=O)N3CCCC[C@H]3C(=O)N[C@@H](C)C(=O)N3C[C@H](C)C[C@H]3C(=O)O[C@H]2C)c1 ({NH(4-Cl-2-F-phenyl)-CO}-[Phe(3-Me)][aThr][Hyp][Pip]A[Pro(4R-Me)]; ester 2-C)
[1]
  GI50: 1280 nM
  TGI: 7690 nM
[2]
  GI50: 327 nM
  TGI: 2150 nM
[3]
  GI50: 505 nM
  TGI: 12100 nM
[4]
  GI50: 2110 nM
  TGI: 6160 nM
[5]
  GI50: 540 nM
  TGI: 2740 nM
[6]
  GI50: 807 nM
  TGI: 5580 nM
[7]
  GI50: 520 nM
  TGI: 12000 nM
[8]
  GI50: 344 nM
  TGI: 1360 nM
[9]
  GI50: 511 nM
  TGI: 9840 nM
[10]
  GI50: 860 nM
  TGI: 8040 nM
[11]
  GI50: 468 nM
  TGI: 1770 nM
[12]
  GI50: 404 nM
  TGI: 1660 nM
[13]
  GI50: 1930 nM
  TGI: 4340 nM
[14]
  GI50: 322 nM
  TGI: 1790 nM
[15]
  GI50: 484 nM
  TGI: 3620 nM
[16]
  GI50: 525 nM
  TGI: 3140 nM
[17]
  GI50: 455 nM
  TGI: 3580 nM
[18]
  GI50: 547 nM
  TGI: 3060 nM
[19]
  GI50: 919 nM
  TGI: 2980 nM
[20]
  GI50: 221 nM
  TGI: > 33700 nM
[21]
  GI50: 788 nM
  TGI: 2490 nM
[22]
  GI50: 670 nM
  TGI: 2160 nM
[23]
  GI50: 487 nM
  TGI: 2190 nM
[24]
  GI50: 553 nM
  TGI: 2190 nM
[25]
  GI50: 391 nM
  TGI: 3000 nM
[26]
  GI50: 429 nM
  TGI: 1710 nM
[27]
  GI50: 438 nM
  TGI: 1740 nM
[28]
  GI50: 876 nM
  TGI: 6280 nM
[29]
  GI50: 511 nM
  TGI: 2630 nM
[30]
  GI50: 551 nM
  TGI: 3720 nM
[31]
  GI50: 398 nM
  TGI: 2460 nM
[32]
  GI50: 464 nM
  TGI: 2600 nM
[33]
  GI50: 11000 nM
  TGI: 33400 nM
[34]
  GI50: 438 nM
  TGI: 1750 nM
[35]
  GI50: 324 nM
  TGI: 2680 nM
[36]
  GI50: 554 nM
  TGI: 2360 nM
[37]
  GI50: 435 nM
  TGI: 15600 nM
[38]
  GI50: 365 nM
  TGI: 1850 nM
[39]
  GI50: 128 nM
  TGI: 1630 nM
[40]
  GI50: 1310 nM
  TGI: 2960 nM
[41]
  GI50: 499 nM
  TGI: 4020 nM
[42]
  GI50: 416 nM
  TGI: 1800 nM
[43]
  GI50: 733 nM
  TGI: 2290 nM
[44]
  GI50: 635 nM
  TGI: 2370 nM
[45]
  GI50: 728 nM
  TGI: 2080 nM
[46]
  GI50: 492 nM
  TGI: 1700 nM
[47]
  GI50: 501 nM
  TGI: 3520 nM
[48]
  GI50: 393 nM
  TGI: 4600 nM
[49]
  GI50: 381 nM
  TGI: 11300 nM
[50]
  GI50: 544 nM
  TGI: 4800 nM
[51]
  GI50: 546 nM
  TGI: 3550 nM
[52]
  GI50: 595 nM
  TGI: 10900 nM
[53]
  GI50: 415 nM
  TGI: 4840 nM
[54]
  GI50: 1780 nM
  TGI: 10100 nM
[55]
  GI50: 440 nM
  TGI: 7770 nM
[56]
  GI50: 388 nM
  TGI: 2200 nM
[57]
  GI50: 505 nM
  TGI: 1960 nM
[58]
  GI50: 2140 nM
  TGI: 7680 nM

## Cc1cc2c(C(N)=O)cccc2n1-c1nc2c(c(NCc3ccccc3)n1)CCCN2
[1]
  GI50: 248 nM
  TGI: 519 nM
[2]
  GI50: 212 nM
  TGI: 362 nM
[3]
  GI50: 220 nM
  TGI: 543 nM
[4]
  GI50: 236 nM
  TGI: 791 nM
[5]
  GI50: 295 nM
  TGI: 695 nM
[6]
  GI50: 151 nM
  TGI: 333 nM
[7]
  GI50: 295 nM
  TGI: 19800 nM
[8]
  GI50: 195 nM
  TGI: 364 nM
[9]
  GI50: 290 nM
  TGI: 783 nM
[10]
  GI50: 256 nM
  TGI: 630 nM
[11]
  GI50: 170 nM
  TGI: 325 nM
[12]
  GI50: 83.1 nM
  TGI: 631 nM
[13]
  GI50: 162 nM
  TGI: 467 nM
[14]
  GI50: 228 nM
  TGI: 1010 nM
[15]
  GI50: 217 nM
  TGI: 454 nM
[16]
  GI50: 261 nM
  TGI: 541 nM
[17]
  GI50: 262 nM
  TGI: 745 nM
[18]
  GI50: 215 nM
  TGI: 485 nM
[19]
  GI50: 194 nM
  TGI: 439 nM
[20]
  GI50: 95.5 nM
  TGI: 2920 nM
[21]
  GI50: 195 nM
  TGI: 400 nM
[22]
  GI50: 51.7 nM
  TGI: 206 nM
[23]
  GI50: 212 nM
  TGI: 432 nM
[24]
  GI50: 178 nM
  TGI: 346 nM
[25]
  GI50: 85.3 nM
  TGI: 747 nM
[26]
  GI50: 186 nM
  TGI: 394 nM
[27]
  GI50: 164 nM
  TGI: 322 nM
[28]
  GI50: 241 nM
  TGI: 1160 nM
[29]
  GI50: 158 nM
  TGI: 332 nM
[31]
  GI50: 232 nM
  TGI: 661 nM
[32]
  GI50: 164 nM
  TGI: 359 nM
[33]
  GI50: 307 nM
  TGI: 1740 nM
[34]
  GI50: 206 nM
  TGI: 410 nM
[35]
  GI50: 178 nM
  TGI: 396 nM
[36]
  GI50: 230 nM
  TGI: 585 nM
[37]
  GI50: 182 nM
  TGI: 431 nM
[38]
  GI50: 287 nM
  TGI: 825 nM
[39]
  GI50: 40.1 nM
  TGI: 325 nM
[40]
  GI50: 126 nM
  TGI: 273 nM
[41]
  GI50: 213 nM
  TGI: 487 nM
[42]
  GI50: 174 nM
  TGI: 352 nM
[43]
  GI50: 205 nM
  TGI: 423 nM
[44]
  GI50: 112 nM
  TGI: 265 nM
[45]
  GI50: 246 nM
  TGI: 593 nM
[46]
  GI50: 59.8 nM
  TGI: 181 nM
[47]
  GI50: 320 nM
  TGI: 813 nM
[48]
  GI50: 134 nM
  TGI: 335 nM
[49]
  GI50: 296 nM
  TGI: 765 nM
[50]
  GI50: 153 nM
  TGI: 342 nM
[51]
  GI50: 117 nM
  TGI: 525 nM
[52]
  GI50: 219 nM
  TGI: 507 nM
[53]
  GI50: 185 nM
  TGI: 431 nM
[54]
  GI50: 378 nM
  TGI: 809 nM
[55]
  GI50: 179 nM
  TGI: 331 nM
[56]
  GI50: 167 nM
  TGI: 347 nM
[57]
  GI50: 155 nM
  TGI: 330 nM
[58]
  GI50: 215 nM
  TGI: 474 nM
